Test results published in article PMC4734766, “Pentamidine Is Not a Permeant but a Nanomolar Inhibitor of the Trypanosoma brucei Aquaglyceroporin-2” (PLoS Pathogens, 2016).
Numbering of substitutions follows the chain as printed. Where two headings read alike, the source gives them in different places.

Assays:
[1] = target: T1, TbAQP2 (Trypanosoma brucei brucei, UniProt Q6ZXT3)
T1 sequence (Q6ZXT3 1-312): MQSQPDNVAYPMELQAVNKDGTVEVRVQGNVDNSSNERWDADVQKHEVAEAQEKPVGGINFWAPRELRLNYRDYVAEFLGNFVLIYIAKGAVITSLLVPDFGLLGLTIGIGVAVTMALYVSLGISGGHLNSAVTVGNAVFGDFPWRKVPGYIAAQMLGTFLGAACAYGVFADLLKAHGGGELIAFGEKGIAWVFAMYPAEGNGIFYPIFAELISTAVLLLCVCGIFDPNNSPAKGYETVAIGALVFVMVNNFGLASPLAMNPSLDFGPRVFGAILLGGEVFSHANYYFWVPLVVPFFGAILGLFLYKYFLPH

[2] = target: TbAQP2 Asp265Ala (Trypanosoma brucei brucei, UniProt Q6ZXT3, D265A); test: cell-based; details: read-out: IC50, pentamidine inhibition of TbAQP2 Asp265Ala
[3] = target: T2, TbAQP2 Leu264Arg (Trypanosoma brucei brucei, UniProt Q6ZXT3, L264R); assay type: cell-based
T2 sequence (Q6ZXT3 1-312 L264R): T1 sequence (Q6ZXT3 1-312) with L264R

## NCC(O)CO (centres unmarked) [3-aminopropane-1,2-diol]
[1]; pH 9.2
  rate of passage through TbAQP2 relative to glycerol: two thirds the rate of glycerol

## N=CN [formamidine]
[1]; not told
  permeability of TbAQP2 for small cations: impermeable

## N=C(N)c1ccc(OCCCCCOc2ccc(C(=N)N)cc2)cc1 [pentamidine]
[2]; pH 2.5
  IC50: 5.8 µM
[2]; pH 7.2
  IC50: 4.5 µM
[3]
  inhibition of TbAQP2 Leu264Arg: failed to inhibit
